The target in assay [1] is T1, GST-TIE2 (intracellular domains of human TIE2) (Homo sapiens, UniProt Q02763).
T1 construct: made in house
Kind of assay: TIE-2 Enzyme Assay (TIE2-E), LANCE method. The format is biochemical. As to conditions: preactivated GST-TIE2, 1 μM D1-15 peptide, 80 uM ATP, 30 mins at room temperature; pIC50 = -log IC50 in Molar. The text has this:
The TIE-2 enzyme assay used the LANCE method (Wallac) and GST-TIE2, baculovirus expressed recombinant constructs of the intracellular domains of human TIE2 (amino acids 762-1104, GenBank Accession # L06139) tagged by GST). The method measured the ability of the purified enzymes to catalyse the transfer of the γ-phosphate from ATP onto tyrosine residues in a biotinylated synthetic peptide, D1-15 (biotin-C6-LEARLVAYEGWVAGKKKamide). This peptide phosphorylation was detected using the following procedure: for enzyme preactivation, GST-TIE2 was incubated for 30 mins at room temperature with 2 mM ATP, 5 mM MgCl2 and 12.5 mM DTT in 22.5 mM HEPES buffer (pH7.4). Preactivated GST-TIE2 was incubated for 30 mins at room temperature in 96 well plates with 1 μM D1-15 peptide, 80 uM ATP, 10 mM MgCl2, 0.1 mg/ml BSA and the test compound (diluted from a 10 mM stock in DMSO, final DMSO concentration was 2.4%) in 1 mM HEPES (pH7.4). The reaction was stopped by the addition of EDTA (final concentration 45 mM). Streptavidin linked-APC (allophycocyanin, Molecular Probe) and Europium-labeled anti-phosphorylated tyrosine antibody (Wallac) were then added at the final concentration of 17 μg/well and 2.1 μg/well, respectively. The APC signal was measured using an ARVO multilabel counter. (Wallac Berthold Japan). The percent inhibition of activity was calculated relative to blank control wells.
The concentration of test compound that inhibits 50% of activity (IC50) was interpolated using nonlinear regression (Levernberg-Marquardt) and the equation, y=Vmax (1−x/(K+x))+Y2, where “K” was equal to the IC50. The IC50 values were converted to pIC50 values, i.e., −log IC50 in Molar concentration.
Test compounds are employed in free or salt form.
(In general: TR-FRET usually uses a lanthanide donor and a delayed reading to cut background.)

Assay [2] addresses GSK-3β (Homo sapiens, UniProt P49841). As to the kind of experiment: GSK3 scintillation proximity assay (SPA) kinase assay. As to conditions: 20 nM kinase, 2.5 uM ATP, biotinylated glycogen synthase peptide, 40 minutes at room temperature; -log IC50 in Molar; read-out: GSK-3 pIC50 (converted). The format is biochemical. The text has this:
The phosphorylated biotinylated peptide is then captured onto streptavidin coated scintillation proximity assay (SPA) beads from Amersham Technology, where the signal from the ^33P is amplified via the scintillant contained in the beads.
GSK-3β is commercially available or may be cloned and expressed in E. coli using standard techniques to produce soluble, active protein. The production of active protein involves purification in two steps using Metal Chelate and Ion Exchange Chromatography. Protein eluting from Ion Exchange provides >90% pure product that may then be concentrated for use in high throughput screening.
The kinase was assayed at a concentration of 20 nM final in 100 mM HEPES, pH 7.2 containing 10 mM magnesium chloride, 0.1 mg/mL bovine serum albumin, 1 mM dithiothreitol, 0.3 mg/mL heparin, 2.8 uM peptide substrate, 2.5 uM ATP, and 0.2 uCi/well [[…]-^33P]-ATP. After 40 minutes incubation at room temperature, the reaction was stopped by addition of 100 mM EDTA and […] in 100 mM HEPES, pH7.2 followed by an additional solution of diluted Streptavidin coated SPA beads in PBS, pH 7.2 to give a final concentration of 0.25 mg of beads per assay well in a 96-well microtiter plate.
10 mM stock solutions of the compounds of the invention in 100% DMSO are generated as a first step in the screening process. The second step involves the creation of dose response plates where these compounds are diluted 10-fold in 100% DMSO to 1 mM concentrations and subsequently serially diluted 3-fold in 100% DMSO across the plate by automated liquid handling such that the final top concentration of inhibitor is 0.033 mM in the 30 uL kinase assay. The third step involves the creation of the assay plates. This is achieved by transferring 1 uL of the compounds to assay plates by automated liquid handling. The fourth step is to perform the assay as described and count the resulting plates in the Packard TopCount NXT microplate scintillation and luminescence counter.
The final step is data acquisition and analysis where IC50 values are generated for each compound by normalizing curve data to the equation 100*(U1−C2)/(C1−C2) (where U1 is the cpm value, C2 is the background, and C1 is the maximum number of counts), then fitting the normalized data to the equation y=Vmax*(1−(x/(K+x))). The IC50 values were converted to pIC50 values, i.e., −log IC50 in Molar concentration. The data is expressed below in Table 1.
In general terms: SPA uses beads or plates that emit light when radiolabelled molecules are held near them.

This note sets out measurements from patent US20050267133A1, “Pyrazolopyrimidines as kinase inhibitors” (priority 2002, published 2005).

T1 sequence (Q02763 762-1104): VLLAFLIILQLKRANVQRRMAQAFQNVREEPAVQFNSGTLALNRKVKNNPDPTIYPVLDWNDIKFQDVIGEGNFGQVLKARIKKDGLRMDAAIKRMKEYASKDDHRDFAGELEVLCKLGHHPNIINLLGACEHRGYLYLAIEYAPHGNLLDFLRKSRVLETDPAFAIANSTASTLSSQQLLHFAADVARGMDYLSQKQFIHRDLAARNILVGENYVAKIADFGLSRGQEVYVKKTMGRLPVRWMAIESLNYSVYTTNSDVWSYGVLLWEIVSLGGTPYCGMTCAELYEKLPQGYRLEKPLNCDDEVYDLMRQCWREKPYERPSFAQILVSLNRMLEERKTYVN
Sequence of GSK-3β (P49841 whole entry, species assumed): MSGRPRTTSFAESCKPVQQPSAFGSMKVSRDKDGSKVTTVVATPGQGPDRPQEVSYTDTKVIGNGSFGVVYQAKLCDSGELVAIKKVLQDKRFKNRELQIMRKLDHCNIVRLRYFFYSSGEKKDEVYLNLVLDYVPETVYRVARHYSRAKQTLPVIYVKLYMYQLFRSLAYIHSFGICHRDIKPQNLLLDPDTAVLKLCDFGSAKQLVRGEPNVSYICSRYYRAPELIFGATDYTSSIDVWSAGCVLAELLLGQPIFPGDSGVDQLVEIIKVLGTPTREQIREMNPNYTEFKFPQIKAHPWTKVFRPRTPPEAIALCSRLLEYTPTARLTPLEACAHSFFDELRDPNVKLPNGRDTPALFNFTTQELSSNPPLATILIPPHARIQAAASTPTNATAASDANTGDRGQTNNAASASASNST

As for `COc1cc(/C=N/Nc2ncnc3c2cnn3-c2ccccc2)cc(C(=O)O)c1O` [Example 47, 3-Carboxy-4-Hydroxy-5-methoxybenzaldehyde (1-phenyl-1H-pyrazolo[3,4-d]pyrimidin-4-yl)hydrazone], the IC50 is 1000 to 10000 nM in assay [1] and 100 to 1000 nM in assay [2].

As for `COc1cc(/C=N/Nc2ncnc3c2cnn3-c2ccccc2)cc(Br)c1O` [Example 48, 3-Bromo-4-hydroxy-3-methoxybenzaldehyde (1-phenyl-1H-pyrazolo[3,4-d]pyrimidin-4-yl)hydrazone], the IC50 in assay [1] and in assay [2] was 100 to 1000 nM in each case.

`CCOc1cc(/C=N/Nc2ncnc3c2cnn3-c2ccccc2)ccc1O` [Example 49, 3-Ethoxy-4-hydroxy-benzaldehyde (1-phenyl-1H-pyrazolo[3,4-d]pyrimidin-4-yl)hydrazone]: the IC50 in assay [1] and in assay [2] was 1000 to 10000 nM each time.

Regarding `Fc1ccc(/C=N/Nc2ncnc3c2cnn3-c2ccccc2)cc1` [Example 50, 4-Fluorobenzaldehyde (1-phenyl-1H-pyrazolo[3,4-d]pyrimidin-4-yl)hydrazone], the IC50 in assay [1] is 1000 to 10000 nM; in assay [2] it was 100 to 1000 nM.

With `OCc1ccc(/C=N/Nc2ncnc3c2cnn3-c2ccccc2)o1` [Example 51, 5-Hydroxymethyl-2-furaldehyde [1-(phenyl)-1H-pyrazolo[3,4-d]pyrimidin-4-yl]hydrazone], the IC50 in assay [1] and in assay [2] was 1000 to 10000 nM each time.

Turning to `CC(=O)Nc1ccc(/C=N/Nc2ncnc3c2cnn3-c2ccccc2)cc1` [Example 52, 4-Acetamidobenzaldehyde [1-(phenyl)-1H-pyrazolo[3,4-d]pyrimidin-4-yl]hydrazone], the IC50 in assay [1] and in assay [2] was 100 to 1000 nM throughout.

For `OCCOc1ccc(/C=N/Nc2ncnc3c2cnn3-c2ccccc2)cc1` [Example 53, 4-(2-Hydroxyethoxy)benzaldehyde [1-(phenyl)-1H-pyrazolo[3,4-d]pyrimidin-4-yl]hydrazone], the IC50 in assay [1] is 1000 to 10000 nM; in assay [2], 100 to 1000 nM.

Consider `COc1ccc(/C=N/Nc2ncnc3c2cnn3-c2ccccc2)cc1OC` [Example 56, 3,4-Dimethoxybenzaldehyde [1-(phenyl)-1H-pyrazolo[3,4-d]pyrimidin-4-yl]hydrazone], for which the IC50 in assay [1] and in assay [2] was 100 to 1000 nM each time.

As to `[O-][n+]1ccc(/C=N/Nc2ncnc3c2cnn3-c2ccccc2)cc1` [Example 58, Pyridine-N-oxide-4-carboxaldehyde [1-(phenyl)-1H-pyrazolo[3,4-d]pyrimidin-4-yl]hydrazone], the IC50 is 1000 to 10000 nM in assay [1] and below 100 nM in assay [2].

For `CCN(CC)CCOc1ccc(/C=N/Nc2ncnc3c2cnn3-c2ccccc2)cc1` [Example 60, 4-(2-(Diethylamino)-ethoxy)-benzaldehyde [1-(phenyl)-1H-pyrazolo[3,4-d]pyrimidin-4-yl]hydrazone], the IC50 in assay [1] and in assay [2] was 100 to 1000 nM throughout.

Turning to `O=C(O)/C=C/c1ccc(/C=N/Nc2ncnc3c2cnn3-c2ccccc2)cc1` [Example 61, 4-Formylcin namic acid [1-(phenyl)-1H-pyrazolo[3,4-d]pyrimidin-4-yl]hydrazone], the IC50 in assay [1] and in assay [2] was 100 to 1000 nM in each case.
